# Tests used:
# [1] = test system: HIV-1 IIIB infected MT-4 cells; assay: anti-HIV activity test (MTT viable cell count); format: cell-based; conditions: Human immunodeficiency virus 1, MT4, 120 h, MOI 0.01, 5 days, MTT method, read-out: EC50 (concentration at which cellular damage due to HIV infection is inhibited by 50%)
# Experimental: In Test Example 1, the amine compound according to the present invention was subjected to the anti-HIV activity test. HIV-1 IIIB infected MT-4 cells (3.0×10^4 cells/well, MOI (multiplicity of infection): 0.01) were added to a 96-well microtiter plate together with the test compound (compound 1, A, or B) at a different concentration immediately after infection. After culturing the cells at 37° C. for 5 days using a carbon dioxide incubator, the number of viable cells was measured by the MTT (tetrazolium) method ([…] et al., J. Virol. Method, 20, 309-321, 1988).
# [2] = hydrolysis in serum (background finding of the inventors); format: in vitro ADME; conditions: species not stated
# [3] = oral absorption properties
oral absorption properties [3],Compound,EC50 [1] [nM],hydrolysis in serum [2]
,"CCCN(CCC)CCCCN(CCC(=O)OCC)Cc1ccc(CN(Cc2ncc[nH]2)Cc2nccn2C)cc1 [Compound B, ethyl 3-[(4-dipropylaminobutyl)(4-{[(1H-imidazol-2-ylmethyl)(1-methyl-1H-imidazol-2-ylmethyl)amino]methyl}benzyl)amino]propionate]",3,hydrolyzed to only a small extent in serum
poor oral absorption properties,"CCCN(CCC)CCCCN(CCC(=O)O)Cc1ccc(CN(Cc2ncc[nH]2)Cc2nccn2C)cc1 [Compound A, 3-[(4-dipropylaminobutyl)(4-{[(1H-imidazol-2-ylmethyl)(1-methyl-1H-imidazol-2-ylmethyl)amino]methyl}benzyl)amino]propionic acid]",3,
,"CCCN(CCC)CCCCN(CCC(=O)OCCN(C)C)Cc1ccc(CN(Cc2ncc[nH]2)Cc2nccn2C)cc1 [Compound 1, 2-dimethylaminoethyl 3-[(4-dipropylaminobutyl)(4-{[(1H-imidazol-2-ylmethyl)(1-methyl-1H-imidazol-2-ylmethyl)amino]methyl}benzyl)amino]propionate]",3,

# — patent US8722719B2, “Amine compound and use for same” (Kureha Corporation, priority 2010, dated 2014)
